In the supplement of paper PMC10307832:

Assays:
Experiment in all cases: relative viability (nuclei count vs DMSO), 5 days (fraction); higher = more cells survive
Crizotinib + Phenformin = compound: C[C@@H](Oc1cc(-c2cnn(C3CCNCC3)c2)cnc1N)c1c(Cl)ccc(F)c1Cl [Crizotinib] + N=C(N)NC(=N)NCCc1ccccc1 [Phenformin] (partner 250 µM)
Summary of the method: (§1)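 Cells from lung cancer lines were seeded into 1536-well plates and, one day later, dosed by pin tool. Treatments were either a single drug or a fixed dose of an anchor drug with five library-drug doses (not always all listed) in √10 steps. After 5 days, nuclei were stained in a one-step fixation (final 0.05% Triton X-100, 1% formaldehyde, 1 ug/ml Hoechst) and counted on 4× images, and relative viability is the treated-to-vehicle nuclei ratio, as the median of duplicate plates.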

Carfilzomib + Trametinib = compound: CC(C)C[C@H](NC(=O)[C@H](CCc1ccccc1)NC(=O)CN1CCOCC1)C(=O)N[C@@H](Cc1ccccc1)C(=O)N[C@@H](CC(C)C)C(=O)[C@@]1(C)CO1 [Carfilzomib] + CC(=O)Nc1cccc(-n2c(=O)n(C3CC3)c(=O)c3c(Nc4ccc(I)cc4F)n(C)c(=O)c(C)c32)c1 [Trametinib] (partner 0.02 µM)
Summary of the method: as §1

Olaparib + Luminespib = compound: O=C(c1cc(Cc2n[nH]c(=O)c3ccccc23)ccc1F)N1CCN(C(=O)C2CC2)CC1 [Olaparib] + CCNC(=O)c1noc(-c2cc(C(C)C)c(O)cc2O)c1-c1ccc(CN2CCOCC2)cc1 [Luminespib] (partner 0.01 µM)
Summary of the method: as §1

Olaparib + AZD7762 = compound: O=C(c1cc(Cc2n[nH]c(=O)c3ccccc23)ccc1F)N1CCN(C(=O)C2CC2)CC1 [Olaparib] + NC(=O)Nc1cc(-c2cccc(F)c2)sc1C(=O)N[C@H]1CCCNC1 [AZD7762] (partner 0.2 µM)
Summary of the method: as §1

Cell Line	relative viability (Crizotinib + Phenformin; first compound 0.01 µM)	relative viability (Crizotinib + Phenformin; first compound 0.03162 µM)	relative viability (Crizotinib + Phenformin; first compound 0.1 µM)	relative viability (Crizotinib + Phenformin; first compound 0.3162 µM)	relative viability (Crizotinib + Phenformin; first compound 1 µM)	relative viability (Carfilzomib + Trametinib; first compound 0.001 µM)	relative viability (Carfilzomib + Trametinib; first compound 0.003162 µM)	relative viability (Carfilzomib + Trametinib; first compound 0.01 µM)	relative viability (Carfilzomib + Trametinib; first compound 0.03162 µM)	relative viability (Carfilzomib + Trametinib; first compound 0.1 µM)	relative viability (Olaparib + Luminespib; first compound 0.08 µM)	relative viability (Olaparib + Luminespib; first compound 0.253 µM)	relative viability (Olaparib + Luminespib; first compound 2.53 µM)	relative viability (Olaparib + Luminespib; first compound 8 µM)	relative viability (Olaparib + AZD7762; first compound 0.08 µM)	relative viability (Olaparib + AZD7762; first compound 0.253 µM)	relative viability (Olaparib + AZD7762; first compound 2.53 µM)	relative viability (Olaparib + AZD7762; first compound 8 µM)
LCLC-103H	0.348	0.313	0.337	0.328	0.294	0.688	0.643	0.72	0.642	0.557	1.21	0.805	1.19	0.769	0.916	0.773	0.727	0.56
LK-2	0.583	0.37	0.221	–	0.325	0.713	0.973	0.747	0.172	0.2	0.176	0.212	0.214	0.181	0.351	0.394	0.348	0.471
LOU-NH91	0.684	0.756	0.788	0.706	0.683	0.831	0.81	0.818	0.389	0.33	0.341	0.36	0.346	0.332	0.838	0.739	0.789	0.761
LU99A	0.761	0.857	0.786	0.769	1	0.525	0.588	0.541	0.417	0.284	0.249	0.254	0.21	0.206	0.337	0.213	0.204	0.125
LXF-289	0.494	0.512	0.54	0.406	0.557	0.705	0.742	0.679	0.163	0.107	0.784	0.635	0.721	0.567	1.27	1.02	1.28	1.17
NCI-H23	0.743	0.855	0.783	–	0.795	0.39	0.328	0.428	0.238	0.0981	0.229	0.211	0.2	0.186	0.3	0.269	0.269	0.147
NCI-H322M	0.627	0.821	0.799	0.579	0.797	0.505	0.49	0.487	0.507	0.364	0.98	0.821	0.906	0.527	0.724	0.608	0.521	0.496
NCI-H358	0.231	0.324	0.26	0.309	0.347	0.139	0.136	0.141	0.0944	0.0819	0.324	0.253	0.24	0.206	0.574	0.522	0.495	0.382
NCI-H441	0.671	0.87	0.713	–	–	0.554	0.445	0.236	0.103	0.115	0.38	0.314	0.318	0.281	1.16	1.03	1	0.446
NCI-H460	0.488	0.521	0.536	0.526	0.564	0.116	0.143	0.181	0.13	0.0157	0.0349	0.0392	0.0354	0.034	0.595	0.513	0.357	0.126
NCI-H522	0.702	0.612	0.527	0.768	0.649	0.777	0.767	0.815	0.506	0.336	1.23	1.09	0.781	0.824	0.974	0.896	0.809	0.705
NCI-H596	0.754	0.859	0.68	0.761	0.754	0.785	0.804	0.952	0.69	0.205	0.93	0.883	0.788	0.638	1.19	0.981	1.04	0.703
NCI-H647	0.494	0.634	0.429	0.513	0.488	0.415	0.529	0.538	0.0767	0.0407	0.126	0.186	0.15	0.121	0.508	0.379	0.343	0.156
NCI-H650	0.392	0.451	0.482	0.365	0.44	0.899	1.1	1.08	0.798	0.169	0.924	0.816	0.577	0.533	1.05	0.956	0.826	0.927
NCI-H727	–	0.608	0.755	–	0.511	0.428	0.376	0.46	0.41	0.312	0.446	0.531	0.461	0.346	0.509	0.706	0.626	0.676
NCI-H838	0.553	0.604	0.556	0.516	0.526	0.517	0.575	0.614	0.215	0.0888	0.332	0.218	0.229	0.219	1.09	0.949	0.912	0.801
NCI-H1355	0.431	0.497	0.522	0.382	0.442	0.42	0.469	0.422	0.44	0.139	0.648	0.694	0.52	0.572	0.74	0.749	0.714	0.696
